Data reported in publication PMC12135063, “Pharmaceutical Analysis of Protein–Peptide Coformulations and the Influence of Polysorbates” (Molecular Pharmaceutics, 2025).
Values joined by “and” are separate entries in the source; they are usually repeats but may differ in a detail not shown here. Identical values can stand only once. Like-named read-outs stand apart in the source and are kept apart here. Each block holds one molecule with its values, some of them ahead of it. *1 amine or outer side, *2 acyl side, *3 side chain or, on linkers, in order; H or OH if unused. Where a SMILES comes first, the peptide text is derived from it. Side-chain parts run from the residue outwards. [ ]: non-standard residue; d: D form. The star is where a group is joined. γGlu = O=C(O)[C@H](CCC(=O)[*:2])N[*:1]; αMeF = C[C@](N)(Cc1ccccc1)C(=O)O; αMeK = C[C@](N)(CCCCN)C(=O)O; Lauroyl = CCCCCCCCCCCC(=O)*; αMeS = C[C@](N)(CO)C(=O)O; AEEA = NCCOCCOCC(=O)O; Aib = CC(C)(N)C(=O)O

Tests used:
[1] = target: T1, HSA (Homo sapiens, UniProt P02768); assay: ITC titration of MEDI7219 into HSA in the absence and presence of polysorbate; format: binding; details: for Kd: read-out: dissociation constant; for αi (K B/A/K B): ratio of association constants with/without polysorbate
T1 construct: purchased Sigma-Aldrich UK; host or cells: human serum
Experimental: (§1) Lyophilized protein powders were rehydrated by adding buffer to the protein to achieve a concentration of 10 mg/mL, then stored at 5 °C for 72 h or until fully dissolved. Polysorbate concentrations chosen were 0.1× and 1× the critical micelle concentration (CMC) of each respective polysorbate. Due to the dilution of injection by the ITC, polysorbate formulations were formulated at 10 times the desired concentration. ITC experiments were performed using a Microcal PEAQ-ITC instrument from Malvern Panalytical. Prior to each experiment, the sample cell and syringe were cleaned using 20% Contrad 70 detergent, rinsed with ultrapure water, and dried using methanol. Titration experiments were conducted at 30 °C to ensure that the experimental temperature was above laboratory ambient temperature. As the Microcal PEAQ-ITC lacks a cooling unit, it was necessary to conduct experiments at a temperature that could be maintained consistently. The reference cell was filled with ultrapure water for all experiments. The 200 μL sample cell was filled with protein solution, and the 40 μL injection syringe was filled with polysorbate solution and equilibrated at 5 °C below the experimental temperature. The reference power was set to 41.86 μJ/s (10 μcal/s). Experiments comprised 14 injections of 2.5 μL at an injection speed of 0.5 μL/s. The time between injections was set long enough to allow the heat signals to return to the baseline before the next injection. The solution in the reaction cell was continuously stirred at a speed of 500 rpm. Experiments requiring the titration of peptide or surfactant into protein–surfactant or protein–peptide required the continuation of one experiment into the next, to maintain precise concentration ratios between experimental pathways. As a result, once an experiment had concluded, excess solution was withdrawn and the next titration was conducted into the resulting solution. A reference experiment of polysorbate injected into buffer solution was conducted under identical conditions and subtracted from each run that contained polysorbate in the injection syringe. For experiments that contained MEDI7219 in the injection syringe, a control experiment could not be subtracted in the same manner as the polysorbate experiments. This was suspected to be a consequence of limitations in the software and the interactions generating small binding heats, leading to a noisier thermogram. However, a fitted offset was used instead, which reduced noise and allowed a smooth heat integration. Data were analyzed using MicroCal PEAQ-ITC Analysis Software v1.41. The binding model was analyzed using the one set of binding sites software preset, resulting in the values of changes in the Gibbs free energy (ΔG), enthalpy (ΔH), and entropy in relation to temperature (−TΔS). Each experiment was repeated a minimum of three times to assess the reproducibility.

[2] = target: T1, HSA; assay: DSC thermal stability of HSA with MEDI7219 and polysorbates; format: physicochemical; details: DSC of 10 mg/mL HSA, no polysorbate, MEDI7219 10 mg/mL where ligand
Experimental: Lyophilized protein and MEDI7219 were rehydrated by adding buffer to achieve a concentration of 30 mg/mL, then stored at 5 °C for 72 h or until fully dissolved. Polysorbate solutions were prepared at 3 times higher than the desired concentration to account for dilution in the formulation after mixing with MEDI7219. Polysorbate concentrations in experiments were 0.1× and 1× each polysorbates respective CMC. Samples were produced by adding equal volumes of each component to provide the desired formulation. DSC experiments were conducted using a Microcal PEAQ-DSC instrument from Malvern Panalytical. Prior to each experiment, DSC cells were washed with 2% Decon 90 detergent and then rinsed with ultrapure water. The DSC capillary cell volume was 250 μL for both reference and sample cells; for each experiment, the reference cell contained buffer solution. […] A reference scan of the buffer solution was conducted under identical conditions and subtracted from each run. Data were analyzed using MicroCal PEAQ-DSC Analysis Software v1.64.

[3] = target: T1, HSA; assay: ITC titration of polysorbate into HSA in the absence and presence of MEDI7219; format: binding; details: for ΔG / ΔH / –TΔS / Kd: 30 °C; for Kd: [HSA] = 0.15 mM, read-out: dissociation constant; for αii (K A/B/K A): ratio of association constants with/without MEDI7219
Experimental: as §1, with “The reference power was set to 41.86 μJ/s (10 μcal/s).” left out, “For experiments that contained MEDI7219 in the injection syringe, a control experiment could not be subtracted in the same manner as the polysorbate experiments. This was suspected to be a consequence of limitations in the software and the interactions generating small binding heats, leading to a noisier thermogram. However, a fitted offset was used instead, which reduced noise and allowed a smooth heat integration.” left out

[4] = target: T1, HSA; set-up: method as in not given; details: native GLP-1, reported value; ref not given; cited from earlier work
[5] = MEDI7219 → HSA + RG T20 (1 × CMC), 30 °C
[6] = MEDI7219 → HSA + RG T80 (1 × CMC), 30 °C
[7] = MEDI7219 → HSA + SR T20 (1 × CMC), 30 °C
[8] = MEDI7219 → HSA + SR T80 (1 × CMC), 30 °C
[9] = MEDI7219 → HSA, no polysorbate, 30 °C
[10] = polysorbate (1 × CMC) → HSA + MEDI7219
[11] = polysorbate (1 × CMC) → HSA + MEDI7219, [MEDI7219] = 2.5 mM
[12] = polysorbate (1 × CMC) → HSA, MEDI7219 absent

ΔG [1, 5]: –21.8 (±0.87) kJ mol^–1 | –TΔS [1, 5]: –15.3 (±1.28) kJ mol^–1 | Kd [1, 5]: 176 µM | ΔH [1, 6]: 25.3 (±0.70) kJ mol^–1 | –TΔS [1, 6]: –52.1 (±4.34) kJ mol^–1 | Kd [1, 6]: 24 µM | αi (K B/A/K B) ([1]; MEDI7219 → HSA + RG T80 (1 × CMC)): 1.68 | ΔH [1, 7]: 27.8 (±9.32) kJ mol^–1 | –TΔS [1, 7]: –52.5 (±4.35) kJ mol^–1 | Kd [1, 7]: 55.6 µM | ΔH [1, 8]: 25.4 (±1.03) kJ mol^–1 | –TΔS [1, 8]: –51.3 (±6.16) kJ mol^–1 | Kd [1, 8]: 35.1 µM | αi (K B/A/K B) ([1]; MEDI7219 → HSA + SR T80 (1 × CMC)): 1.30 | ΔH [1, 9]: 35.4 (±8.19) kJ mol^–1 | –TΔS [1, 9]: –60.9 (±7.70) kJ mol^–1 | Kd ([1]; MEDI7219 → HSA, no polysorbate, 30 °C, [HSA] = 0.15 mM, [MEDI7219] = 2.5 mM, average across all experiments): 40.3 µM | association constant ([1]; MEDI7219 → HSA, no polysorbate, 30 °C, example titration): 2.4 × 10^4 M^–1 | decrease of dissociation constant of MEDI7219 ([1]; in the presence of RG T80 versus its absence): 2 fold | Tm 2 [2]: 74 °C and 74.0 (±0.1) °C | total area ([2]; 20–105 °C at 60 °C/h): 806.3 (±5.8) kJ/mol
Molecule: CCCCCCCCCCCC(=O)N[C@@H](CCC(=O)NCCOCCOCC(=O)NCCOCCOCC(=O)NCCCC[C@H](NC(=O)[C@H](C)NC(=O)[C@@H](NC(=O)[C@](C)(Cc1ccccc1)NC(=O)[C@H](CCC(=O)O)NC(=O)[C@](C)(CCCCN)NC(=O)[C@H](C)NC(=O)[C@H](C)NC(=O)[C@H](CCC(=O)O)NC(=O)CNC(=O)[C@H](CCC(=O)O)NC(=O)[C@H](CC(C)C)NC(=O)[C@H](CCCCNC(=O)COCCOCCNC(=O)COCCOCCNC(=O)CC[C@H](NC(=O)CCCCCCCCCCC)C(=O)O)NC(=O)[C@H](CO)NC(=O)[C@](C)(CO)NC(=O)[C@@H](NC(=O)[C@H](CC(=O)O)NC(=O)[C@H](CO)NC(=O)[C@@H](NC(=O)[C@](C)(Cc1ccccc1)NC(=O)[C@H](CO)NC(=O)CNC(=O)[C@H](CCC(=O)O)NC(=O)C(C)(C)NC(=O)[C@@H](N)Cc1c[nH]cn1)[C@@H](C)O)C(C)C)[C@@H](C)CC)C(=O)N[C@H](C(=O)N[C@H](C(=O)N[C@@H](CCC(=O)O)C(=O)NCC(=O)NCC(N)=O)C(C)C)C(C)C)C(=O)O [MEDI7219] (H-H[Aib]EGS[αMeF]TSDV[αMeS]SK([AEEA-AEEA-γGlu-Lauroyl])LEGEAA[αMeK]E[αMeF]IAK([AEEA-AEEA-γGlu-Lauroyl])VVEGG-NH2; N-terminus and C-terminus assumed)

Molecule: Polyoxyethylene (20) sorbitan monolaurate [RG T20]
ΔG [3, 10]: –15.40 (±0.77) kJ mol^–1 | ΔH [3, 10]: –9.07 (±9.4 × 10^–7) kJ mol^–1 | –TΔS [3, 10]: –6.36 (±0.26) kJ mol^–1 | Kd [3, 11]: 2210 µM | αii (K A/B/K A) [3, 10]: 0.47 | ΔG [3, 12]: –17.30 (±0.87) kJ mol^–1 | ΔH [3, 12]: –83.70 (±36.7) kJ mol^–1 | –TΔS [3, 12]: 66.40 (±2.74) kJ mol^–1 | Kd [3, 12]: 1030 µM

Molecule: Polyoxyethylene (20) sorbitan monolaurate [SR T20]
ΔG [3, 10]: –16.10 (±0.81) kJ mol^–1 | ΔH [3, 10]: –4.19 (±0.62) kJ mol^–1 | –TΔS [3, 10]: –11.90 (±0.50) kJ mol^–1 | Kd [3, 11]: 1690 µM | αii (K A/B/K A) [3, 10]: 0.43 | ΔG [3, 12]: –18.20 (±0.91) kJ mol^–1 | ΔH [3, 12]: –43.10 (±6.15) kJ mol^–1 | –TΔS [3, 12]: 24.90 (±1.03) kJ mol^–1 | Kd [3, 12]: 721 µM

Molecule: native GLP-1: native glucagon-like peptide-1, literature comparison
association constant [4]: 2.3 × 10^8 M^–1

ΔG [3, 10]: –16.00 (±0.80) kJ mol^–1 | ΔH [3, 10]: –8.75 (±4.46) kJ mol^–1 | –TΔS [3, 10]: –7.25 (±0.23) kJ mol^–1 | Kd [3, 11]: 1760 µM | αii (K A/B/K A) [3, 10]: 0.57 | ΔG [3, 12]: –17.40 (±0.87) kJ mol^–1 | ΔH [3, 12]: –9.13 (±1.29) kJ mol^–1 | –TΔS [3, 12]: –8.26 (±0.34) kJ mol^–1 | Kd [3, 12]: 1010 µM
Molecule: polyoxyethylene (20) sorbitan monooleate [RG T80]

ΔG [3, 10]: –16.80 (±0.84) kJ mol^–1 | ΔH [3, 10]: –8.72 (±2.7 × 10^–5) kJ mol^–1 | –TΔS [3, 10]: –8.09 (±0.33) kJ mol^–1 | Kd [3, 11]: 1280 µM | αii (K A/B/K A) [3, 10]: 0.40 | ΔG [3, 12]: –19.10 (±0.10) kJ mol^–1 | ΔH [3, 12]: –30.10 (±2.02) kJ mol^–1 | –TΔS [3, 12]: 11.00 (±0.45) kJ mol^–1 | Kd [3, 12]: 513 µM
Molecule: polyoxyethylene (20) sorbitan monooleate [SR T80]
